Peptide text beside a SMILES is read from it.
Columns and labels:
[1] = Qualitative solubility ranking of matrikines in reference solvents; assay type: physicochemical
Protocol: (§1) The HSP sphere of seven different matrikines was determined by using a range of reference solvents (solvents with known HSP spheres) to dissolve the matrikines. The reference solvents were then ranked based on their ability to dissolve the matrikines. A software package called Hansen Solubility Parameters in Practice (HSPiP) was then used to determine the HSPs of each of the matrikines.
In general, a set of around 20 standard reference solvents was used to carry out preliminary investigations in solubility tests. Following this, additional/fine-tuning (FT) solvents were selected and used to are used to optimise the reliability and definition of the solubility parameters of the matrikines.
All samples were prepared under standard conditions, within an air-conditioned laboratory environment, at 20° C. and a standard pressure.
Usually, samples are prepared on the Formax High-throughput Formulation System, manufactured by Chemspeed. However due to the small sample size, the samples of this project were prepared manually using a single channel pipette for liquids and an analytical balance for solids.
Qualitative evaluation of the solubility of the matrikines within a range of different reference solvents was used. Samples were placed into six categories, according to the relative extent to which the matrikine dissolved in the solvent.
Between these two extremes sit the other four ranking-categories, whose typical descriptions can be found in table 1 below.

[2] = HSPiP analysis: Hansen Solubility Sphere of the matrikine from solubility scores; assay type: physicochemical; design: δD / δP: unit not given here; conditions: for δD / δH / δP: Hansen Solubility Parameter of the peptide; for δD / δH / δP / R (Size of HSP Sphere): overall results summary; for δD value / δH value: in words, HSPiP fit of solubility scores; for radius: radius of the HSP sphere
Protocol: as §1
The use of qualitative rankings of solubility phenomena makes it possible to define a spheroidal cluster in which the most compatible samples are contained.
The scores from 1 to 6 were entered into the HSPiP data form and then the software analyses the data to produce a Hansen diagram of the solubility sphere, alongside details of the solubility parameters and the goodness of the fit of the data to the sphere, in text format.

[3] = Franz cell skin explant penetration with 3D OrbiSIMS analysis; assay type: in vitro ADME, human
Protocol: For ex vivo analysis, full thickness human skin tissue was removed during cosmetic surgery from Caucasian female donors (aged 35-70). The explant was frozen immediately post-surgery, shipped and stored at −20° C. prior to use.
The tissue was then defrosted, cut and mounted, dermal side down, in a Franz-type static diffusion cell set-up (Franz, 1975), with an exposed surface area of 1.1 cm^2. Infinite doses of the cosmetic formulations were applied to the donor chamber, with the explant exposed to the formulations for 1 hour in a water bath set to 36.5° C. Sink conditions were maintained throughout the experiments.
After 1 hour, the Franz cell was dismantled, excess formulation was removed with a dry sponge and the skin explant was wiped with a sponge soaked in Teepol Solution (3% v/v). Next, the explant was dehydrated under vacuum at room temperature for 24 hours before 3D OrbiSIMS analysis […]
A 20 KeV Ar3000+ analysis beam with a diameter of 20 μm was used as the primary ion source. Samples were analysed at ambient temperature across a 400×400 μm area in positive polarity with sawtooth raster mode and a total crater size of 486×486 μm. […] Mass spectra were recorded at a resolution of 240,000 at m/z 200 in the mass range of 75 to 1,125 m/z. […]

[4] = blend Glycerol Carbonate:Dimethyl Formamide:1-Propanol 55:25:20%

| Structure (SMILES) | dissolution (in words) ([1]; blend Propylene Carbonate:Propylene Glycol 65:35%) | dissolution (in words) ([1]; blend Propylene Glycol Monomethyl Ether:Propylene Carbonate 55:45%) | greatest contribution to the cohesive energy density [2] | δD [2] | δH [2] | δP [2] | δD value [2] | δH value [2] | R (Size of HSP Sphere) [2] | radius [2] | dissolution (in words) ([1]; blend Benzyl Alcohol:2-Propanol 80:20%) | dissolution (in words) [1, 4] | dissolution (in words) ([1]; solvent N-Methyl Formamide) | solubility over the reference solvents tested (in words) [1] | penetration into the skin tissues ([3]; formulation containing methyl gluceth-20 compared to glycerin only, 1 hour) | Pal-GHK peptide ion intensity in skin explant ([3]; formulation with glycerin+methyl gluceth-20 versus glycerin only, 1 hour in Franz cell, 3D OrbiSIMS) | dissolution (in words) ([1]; solvent 2-PhenoxyEthanol) |
| --- | --- | --- | --- | --- | --- | --- | --- | --- | --- | --- | --- | --- | --- | --- | --- | --- | --- |
| CCCCCCCCCCCCCCCC(=O)NCC(=O)N1CCC[C@H]1C(=O)N[C@@H](CCCCN)C(=O)NCC(=O)O [Pal-GPKG] (HELM PEPTIDE1{[CCCCCCCCCCCCCCCC(=O)[*:2]].G.P.K.G}$$$$V2.0) | did not dissolve | did not dissolve | Dispersion forces | 17.82 | 17.73 | 10.55 | moderate | moderate | 8.3 MPa^0.5 | 8.3 units |  |  |  |  |  |  |  |
| CCCCCCCCCCCCCCCC(=O)N[C@@H](CCC(=O)O)C(=O)N[C@@H](CCCCN)C(=O)NCC(=O)N[C@@H](CC(=O)O)C(=O)O [Pal-EKGD] (HELM PEPTIDE1{[CCCCCCCCCCCCCCCC(=O)[*:2]].E.K.G.D}$$$$V2.0) |  |  | Dispersion forces | 17.31 | 17.26 | 13.92 | moderate | moderate | 10.3 MPa^0.5 | 10.3 units |  |  |  |  |  |  |  |
| CCCCCCCCCCCCCCCC(=O)NCC(=O)N[C@@H](CCC(N)=O)C(=O)N1CCC[C@H]1C(=O)N[C@@H](CCCNC(=N)N)C(=O)O [Pal-GQPR, N-palmitoyl-Gly-Gln-Pro-Arg] (HELM PEPTIDE1{[CCCCCCCCCCCCCCCC(=O)[*:2]].G.Q.P.R}$$$$V2.0) |  |  |  |  |  |  |  |  |  |  | did not dissolve | did not dissolve | complete dissolution |  |  |  | most interaction with the product without complete dissolution |
| CCCCCCCCCCCCCCCC(=O)NCC(=O)N[C@@H](Cc1c[nH]cn1)C(=O)N[C@@H](CCCCN)C(=O)O [Pal-GHK, N-Palmitoyl-Gly-His-Lys] (HELM PEPTIDE1{[CCCCCCCCCCCCCCCC(=O)[*:2]].G.H.K}$$$$V2.0) |  |  | Dispersion forces | 17.83 | 11.22 | 6.57 | moderate | low | 3.5 MPa^0.5 | 3.5 units |  |  |  | No samples showed complete dissolution | penetrated quicker | more peptide ion present |  |

Continued, in another order:

| dissolution (in words) ([1]; blend Propylene Carbonate:Propylene Glycol 65:35%) | dissolution (in words) ([1]; blend Propylene Glycol Monomethyl Ether:Propylene Carbonate 55:45%) | greatest contribution to the cohesive energy density [2] | δD [2] | δH [2] | δP [2] | δD value [2] | δH value [2] | R (Size of HSP Sphere) [2] | radius [2] | dissolution (in words) ([1]; blend Benzyl Alcohol:2-Propanol 80:20%) | dissolution (in words) [1, 4] | dissolution (in words) ([1]; solvent N-Methyl Formamide) | solubility over the reference solvents tested (in words) [1] | penetration into the skin tissues ([3]; formulation containing methyl gluceth-20 compared to glycerin only, 1 hour) | Pal-GHK peptide ion intensity in skin explant ([3]; formulation with glycerin+methyl gluceth-20 versus glycerin only, 1 hour in Franz cell, 3D OrbiSIMS) | Structure (SMILES) | dissolution (in words) ([1]; solvent 2-PhenoxyEthanol) |
| --- | --- | --- | --- | --- | --- | --- | --- | --- | --- | --- | --- | --- | --- | --- | --- | --- | --- |
|  |  | Dispersion forces | 18.84 | 14.82 | 12.04 | high | low | 6.8 MPa^0.5 | 6.8 units |  |  |  | very limited solubility |  |  | CCCCCCCCCCCCCCCC(=O)N[C@@H](CC(C)C)C(=O)N[C@@H](CO)C(=O)N[C@H](C(=O)N[C@@H](CC(=O)O)C(=O)O)C(C)C [Pal-LSVD] (HELM PEPTIDE1{[CCCCCCCCCCCCCCCC(=O)[*:2]].L.S.V.D}$$$$V2.0) |  |
|  |  | Dispersion forces | 17.61 | 10.95 | 10.66 | moderate | low | 6 MPa^0.5 | 6 units |  | didn't dissolve |  |  |  |  | CCCCCCCCCCCCCCCC(=O)N[C@@H](CCC(N)=O)C(=O)N[C@H](C(=O)N[C@@H](C)C(=O)N[C@H](C(=O)O)C(C)C)[C@@H](C)O [Pal-QTAV] (HELM PEPTIDE1{[CCCCCCCCCCCCCCCC(=O)[*:2]].Q.T.A.V}$$$$V2.0) |  |

— patent US20250054582A1, “METHOD OF IDENTIFYING A SOLVENT FOR A MATRIKINE” (THE BOOTS COMPANY PLC, priority 2021, published 2025)
